Data from PubChem BioAssay (NCI).
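These data come from cells grown in 96-well plates and exposed to compound for 48 hours at five concentrations. Here, GI50 denotes the concentration required for 50% inhibition of growth. The concentration for full growth arrest is given as TGI.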

Experiments:
Test in all cases: growth of human tumour cells (NCI), 48 h
HL-60(TB) leukemia = test system: HL-60(TB) leukemia
IGROV1 ovarian = test system: IGROV1 ovarian
LOX IMVI melanoma = test system: LOX IMVI melanoma
MDA-MB-231 breast = test system: MDA-MB-231 breast
NCI-H23 lung = test system: NCI-H23 lung
NCI-H460 lung = test system: NCI-H460 lung
PC-3 prostate = test system: PC-3 prostate
RPMI-8226 leukemia = test system: RPMI-8226 leukemia
SK-MEL-5 melanoma = test system: SK-MEL-5 melanoma
SW-620 colon = test system: SW-620 colon

| SMILES | GI50 (HL-60(TB) leukemia) [µM] | TGI (HL-60(TB) leukemia) [µM] | GI50 (IGROV1 ovarian) [µM] | TGI (IGROV1 ovarian) [µM] | GI50 (LOX IMVI melanoma) [µM] | TGI (LOX IMVI melanoma) [µM] | GI50 (MDA-MB-231 breast) [µM] | TGI (MDA-MB-231 breast) [µM] | GI50 (NCI-H23 lung) [µM] | TGI (NCI-H23 lung) [µM] | GI50 (NCI-H460 lung) [µM] | TGI (NCI-H460 lung) [µM] | GI50 (PC-3 prostate) [µM] | TGI (PC-3 prostate) [µM] | GI50 (RPMI-8226 leukemia) [µM] | TGI (RPMI-8226 leukemia) [µM] | GI50 (SK-MEL-5 melanoma) [µM] | TGI (SK-MEL-5 melanoma) [µM] | GI50 (SW-620 colon) [µM] | TGI (SW-620 colon) [µM] |
| --- | --- | --- | --- | --- | --- | --- | --- | --- | --- | --- | --- | --- | --- | --- | --- | --- | --- | --- | --- | --- |
| CC(C)[C@@]12C[C@@H](OC(=O)COC(=O)/C=C/c3ccccc3)[C@@](C)(O1)[C@@H]1CC[C@@H](C)[C@H]1[C@@H]2OC(=O)/C=C/c1ccccc1 | > 92.2 | > 100 | > 100 | > 100 | > 100 | > 100 | > 100 | > 100 | > 100 | > 100 | > 100 | > 100 | > 100 | > 100 | > 89.4 | > 100 | > 100 | > 100 | > 100 | > 100 |
| CC1=CCC(OC(=O)C(C)(C)CCC(O)(C(=O)OC2(C(C)C)CCC3(C)OC3C2)C(C)C)(C(C)C)CC1 (centres undefined) | 0.229 | 7.93 | 0.0814 | 0.272 | 0.0764 | 0.15 | 0.643 | 1.39 | 0.113 | 0.301 | 0.57 | 1.39 | 0.281 | 0.987 | 0.234 | 8.85 | 0.197 | 0.725 | 0.34 | 1.13 |
| COc1ccc(-c2cnnn2-c2cc(OC)c3c(c2)OCO3)cc1 | 0.0761 | 2.72 | 0.28 | > 100 | 0.491 | > 100 | 0.194 | 4.63 | 0.286 | > 100 | 0.0728 | > 29.2 | 0.167 | > 100 | 0.256 | > 100 | 0.185 | 7.33 | 0.0531 | > 100 |
| N=c1c2c(-c3ccccc3)c(-c3ccccc3)n(Cc3ccccc3)c2ncn1CCCO | 1.77 | 4.74 | 2.08 | 28.1 | 0.5 | 2.77 | 1.4 | 8.33 | 4.32 | 24.3 | 0.448 | 4.47 | 1.62 | 12.2 | 2.86 | 16 | 0.901 | 2.16 | 0.377 | 15.5 |
| CCc1cccc2c3c(sc12)C(c1ccc(Cl)cc1)C(C#N)=C(N)O3 (centres undefined) | 0.355 | 9.48 | 0.53 | 11.1 | 0.545 | 4.22 | 1.56 | 7.72 | 0.692 | 5.18 | 0.414 | 3.01 | 0.39 | 10.7 | 0.442 | 7.95 | 0.898 | 12 | 0.45 | 12.2 |
| C=C(C)[C@@H]1CC[C@]2(C(=O)NCCNCCNCCN)CC[C@]3(C)[C@H](CC[C@@H]4[C@@]5(C)CC[C@H](O)C(C)(C)[C@@H]5CC[C@]43C)[C@@H]12 | 7.33 | 31.2 | 16.1 | 32.5 | 14.9 | 28.6 | 15.1 | 37.1 | 14.7 | 32 | 14.7 | 32 | 2.95 | 18.6 | 2.81 | 27.6 | 11.1 | 23.4 | 14.7 | 34.4 |
| NC(=O)c1cc([N+](=O)[O-])c(Cl)c([N+](=O)[O-])c1 | 3.21 | 8.55 | 3.01 | 7.9 | 1.86 | 3.7 | 1.96 | 3.84 | 2.78 | 8.32 | 15.7 | 38.2 | 1.91 | 4.26 | 2.32 | 5.7 | 5.59 | 18 | 1.9 | 3.99 |
| COC1(O)C(=O)c2ccccc2OC1(OC)c1ccccc1 (centres undefined) | – | > 100 | – | > 100 | – | > 100 | – | > 100 | – | > 100 | – | > 100 | – | > 100 | – | > 100 | – | > 100 | – | > 100 |
| NC1=C(Br)C(=O)c2ncccc2C1=O | – | 2.81 | – | 2.62 | – | 0.655 | 2.01 | 8.8 | – | 0.668 | – | 1.16 | 1.65 | 9.64 | – | 3.81 | – | 1.46 | – | 1.84 |
| COC(=O)c1cc(-c2cc(OC)c(OC)c(OC)c2)[nH]c1N/N=C/c1c(Cl)cccc1Cl | – | > 100 | 2.48 | 16.8 | 2.67 | 17.3 | 2.75 | 22.1 | 1.25 | 7.78 | 1.48 | 18.3 | 0.893 | – | 1.94 | > 34.4 | 3.17 | 17.6 | 1.51 | > 33.8 |
| O=C(/C=C/c1cccs1)c1ccc(Nc2nc(Nc3ccc(F)cc3)nc(Nc3ccc(F)cc3)n2)cc1 | 62.2 | > 100 | 18 | 41 | 32.1 | > 100 | 34.7 | > 100 | 24.2 | 71.2 | 20.4 | > 100 | 19 | 44.4 | 20.9 | > 100 | 56.4 | > 100 | 28.3 | 96.4 |
| Cc1ccc2c(c1C)-c1c(ccc(C)c1C)C(=O)C2=O | – | 0.702 | – | 4.75 | – | 3.76 | – | 8.57 | – | 2.81 | – | 3.4 | – | 7.3 | – | 0.559 | – | 1.29 | – | 3.23 |
| O=C1/C(=C/c2ccc([N+](=O)[O-])o2)Oc2ccc(Br)cc21 | 6.7 | 25.7 | 1.94 | 4.1 | 1.82 | 3.55 | 1.8 | 3.84 | 6.76 | 23.1 | 10.6 | 24.2 | 3.52 | 15.2 | 2.32 | 6.03 | 2.67 | 8.17 | 1.69 | 3.23 |
| COc1ccc(C(=O)COc2cccc(/C=C3\CSc4ccccc4C3=O)c2)cc1 | 2.25 | > 23.2 | 1.49 | 3.35 | 1.54 | 2.98 | 4.33 | 12.5 | 2.14 | 4.78 | 3.56 | 12 | 2.03 | 5.03 | 0.342 | 3.69 | 1.78 | 3.27 | 0.262 | 0.707 |
| CCN(CCNc1ccc(C)c2sc3cc(Cl)ccc3c(=O)c12)CC(C)O (centres undefined) | 1.7 | 3.35 | 1.25 | 2.78 | 1.85 | 3.72 | 1.99 | 4.17 | 2.53 | 4.77 | 1.78 | 3.34 | 1.74 | 3.31 | 1.71 | 3.67 | 1.62 | 2.98 | 1.8 | 3.51 |
| CCc1ccccc1N1CCN(C(=O)c2cc(OC)c(OC)c(OC)c2)CC1 | – | 1.62 | – | > 51.4 | – | 29.3 | – | > 100 | – | 23.3 | – | 2.8 | – | > 9.26 | – | 23.1 | – | 3.79 | – | > 100 |
| COc1cc(C(O)c2nc3ccccc3s2)cc(OC)c1OC (centres undefined) | 14.2 | > 100 | 34.3 | > 100 | 50.6 | > 100 | 58.7 | > 100 | 7.32 | > 100 | 30.9 | > 100 | 15.9 | > 100 | 7.9 | > 100 | 7.35 | 79.5 | > 100 | > 100 |
| NC(=NC1CCCCCCC1)c1ccc(N2CCN(c3ccc(C(N)=NC4CCCCCCC4)cc3)CC2)cc1 | 16 | > 100 | 53.1 | > 100 | > 100 | > 100 | 12.5 | 30.6 | 6.8 | 45.8 | 11.9 | > 100 | 22.6 | 46.8 | 25.8 | > 100 | 1.72 | 7.66 | 8.91 | 38.5 |
| Cn1ccc2c(c1=O)C(=O)c1nccc3c1c-2nc1ccccc13 | 2.21 | 5.03 | 1.52 | 3.87 | 1.4 | 2.81 | 1.64 | 3.13 | 1.27 | 2.8 | 1.36 | 3.09 | 1.69 | 3.64 | 2.58 | 8.68 | 1.51 | 2.84 | 1.28 | 3.17 |
| Cc1nc2sc(C(=O)Nc3cccc4ccccc34)c(N)c2cc1C(=O)/C=C/c1ccccc1 | 0.353 | 1.82 | 0.301 | 1.3 | 0.183 | 0.64 | 0.709 | 2.61 | 0.862 | 4.07 | 0.411 | 2.34 | 0.282 | 4.48 | 0.14 | 0.5 | 0.379 | 1.69 | 0.21 | 1.66 |
| O=C1c2ccc3c4c5ccc(c24)C(=O)N1CCCOCCCCOCCCNCc1ccc(cc1)CNCCCOCCCCOCCCN(C3=O)C5=O | 1.01 | 2.03 | 0.791 | 1.6 | 0.797 | 1.52 | 1.07 | 2.98 | 0.93 | 1.81 | 0.972 | 2 | 0.904 | 2.76 | 0.93 | 2.49 | 0.855 | 1.55 | 0.964 | 2.06 |
| Cc1ccc(/C=C2/SC(Nc3nc(-c4nc(NC5=NC(=O)/C(=C\c6ccc(C)cc6)S5)sc4C)c(C)s3)=NC2=O)cc1 | 0.368 | > 50 | 7.29 | > 50 | 0.287 | 12.2 | 1.36 | 19.9 | 0.895 | 8.46 | 0.643 | > 50 | 0.757 | > 50 | 1.27 | > 15 | 0.077 | – | 0.714 | > 50 |
| C=CC1=C[C@@H]2[C@@H]3O[C@]4(CC[C@H](O4)[C@@H](C)C[C@@H](O)C3=O)C[C@H](O)C3=NCC[C@@]32CC1 | < 0.00333 | < 0.00333 | < 0.00333 | 0.00337 | < 0.00333 | < 0.00333 | < 0.00333 | 0.0121 | < 0.00333 | < 0.00333 | < 0.00333 | < 0.00333 | < 0.00333 | 0.0122 | < 0.00333 | < 0.00333 | < 0.00333 | < 0.00333 | < 0.00333 | 0.00523 |
| CS(=O)(=O)c1ccc(-c2cnc(N)c(C(=O)Nc3ccccc3)n2)cc1 | 5.62 | > 100 | 5.17 | > 100 | 4.2 | > 100 | > 67.6 | > 100 | 4.84 | > 100 | 10.7 | > 100 | > 100 | > 100 | > 100 | > 100 | 28.7 | > 100 | > 100 | > 100 |
| O=C1Nc2ccccc2C1Cc1ccc([N+](=O)[O-])cc1 (centres undefined) | – | > 100 | – | > 100 | – | > 100 | – | > 100 | – | > 100 | – | > 100 | – | > 100 | – | > 100 | – | > 100 | – | > 100 |
| C/C([O-])=C1\Cc2ccccc2C1=O.C/C([O-])=C1\Cc2ccccc2C1=O.CC[O-].CC[O-].[Ti+4] | 13.1 | 50.8 | 8.46 | 39.5 | 13 | 32 | 12.9 | 70.9 | 20.2 | 62.2 | 10.3 | 44.7 | 22 | 71.7 | 14.8 | 68.8 | 19.3 | > 57.8 | 24.8 | > 84.9 |
